According to PMC12264794, “Homoleptic complexes of titanium(IV) fused with O^N^O Schiff base derivatives: design, BSA–DNA interaction, molecular docking, DFT and cytotoxicity” (RSC Advances, 2025):

Legend:
CT-DNA = details: constant used in eqn (6); no reference given; cited from earlier work
HeLa cells = assay: Flow cytometry cell cycle analysis by PI staining; format: cell-based, human; details: 48 h, complexes at IC50, cis-platin 5 μM
Procedure: A flow cytometer was also used to do the apoptotic assessment. HeLa cells (5 × 10^5) were seeded onto 6-well plates using Dulbecco's Modified Eagle Medium paper (DMEM) with 10% FBS. The plates were incubated overnight at 37 °C with 95% air and 5% CO2. […] Following trypsinization, the cells were collected, cleaned with PBS, and fixed for 24 hours at 2–6 °C in ice-cold 70% ethanol. Centrifugation was used to remove the ethanol, and cold PBS was used twice to wash the cell pellets. Later the cells were stained with propidium iodide (PI, 1 mg mL^−1) and incubated for 30 min. Flow cytometric analysis was performed using a FACS scanner and the Becton Dickinson cell search program at 595 nm and the distribution of cells in various cell cycle phases was determined.[69,70]
Through cell cycle analysis, the mechanism of cancer cell death caused by the complexes was evaluated. Anticancer drugs promote growth-inhibitory action in cancer cells by a variety of mechanisms, one of which is dysfunction in the regulation of the cell cycle.[32] For example, cis-platin inhibits DNA transcription in cells by stopping the cell cycle in the S and G2/M phases. PI staining and flow cytometry were used to examine the ability of the complexes to modify the cell cycle (Fig. 19).

| SMILES | KEtBr, DNA binding constant of EB (CT-DNA) | G0/G1 phase (HeLa cells) | M Phase (HeLa cells) | S Phase (HeLa cells) | Sub-G0 phase (HeLa cells) |
| --- | --- | --- | --- | --- | --- |
| CC[n+]1c(-c2ccccc2)c2cc(N)ccc2c2ccc(N)cc21 [EB, ethidium bromide] | 1e+07 M⁻¹ | – | – | – | – |
| N.N.[Cl][Pt][Cl] [Cis-platin, cis-platin, reference compound] | – | 27.12% | 17.52% | 10.11% | 45.25% |
